Assays:
ACC levels in shoots = test: Quantification of ACC in shoots by CE-MS; assay type: in vivo, Arabidopsis thaliana
Procedure: To find out whether differential transcripts reflect changes in hormone levels, we determined concentrations of the ethylene precursor ACC in complete shoots of 9-day-old plants transferred to mannitol. Already 1 h after stress onset, ACC levels were 30% higher in stressed than in control samples, although this was not significant, and by 10 h, the increase was more than 2-fold and significant (FIG. 7B). At the time of analysis, the shoot samples were mainly composed of expanding cells, reflecting the overall importance of ethylene signaling for the response of growing tissues to stress.
Freeze-dried samples were dissolved in 500 μl of methanol, including two internal standard compounds (4 μM methionine sulfone used for compensation of the peak area after capillary electrophoresis-mass spectrometry (CE-MS) analysis and 0.2 μM D4-ACC for quantification of ACC. After addition of 500 μl of chloroform and 200 μl of water, the mixture was vortexed for 3 min and centrifuged at 20,400 g for 3 min at 4° C. The upper layer was evaporated for 30 min at 45° C. by a centrifugal concentrator and then separated into two layers. The upper layer (100-200 μl) was centrifugally filtered through a Millipore 5-kD cutoff filter at 9,100 g for 90 min. […] The final solution (10 μL) was used to quantify the contents of ACC by cation analysis using CE-MS. […]

[1] = tested on: proliferating leaf primordia transcriptome; test: ATH1 whole-genome transcript profiling of proliferating leaf primordia; assay type: in vivo, Arabidopsis thaliana
Source text: To obtain a better understanding of the molecular mechanisms inhibiting cell division during stress, we subjected proliferating leaf primordia to whole-genome transcript profiling. […] Selected microarray data could be validated with a nCounter platform containing probes for 100 genes involved in growth, stress, and hormonal regulation. Differential transcripts were used to construct Venn diagrams and were subjected to k-means clustering. […] Subsequently, the differential transcripts were examined with PageMan to calculate the functional overrepresentation of MapMan categories (Thimm et al., 2004; Usadel et al., 2006) and were compared to selected publicly available microarray experiments (see “Materials and Methods”). To explain the reduced cell proliferation rates, cell cycle genes were among the prime suspects. […] Strikingly, the magnitude of change for all of the above-mentioned cell cycle genes was similar (approximately 30%) and occurred only at 24 h (FIG. 6A). Besides the cell cycle-related transcripts, we were particularly interested in genes related to hormonal signaling.
Leaf 3 was harvested from plants at 1.5, 3, 12, and 24 h. Briefly, whole seedlings were harvested in an excess of RNAlater solution (Ambion) and, after overnight storage at 4° C., dissected under a binocular microscope on a cooling plate with precision microscissors. Dissected leaves were transferred to a new tube, frozen in liquid nitrogen, and ground with a Retsch machine and 3-mm metal balls. Samples were obtained from three independent biological experiments and from multiple plates within the experiment.
RNA was extracted with TriZol (Invitrogen) according to the manufacturer's instructions with 4 μg of glycogen as carrier during the precipitation step. RNA samples were subjected to DNA digestion with RNase-free DNase I (Roche) and subsequently cleaned up with the RNeasy Mini Kit (Qiagen).
RNA samples were hybridized to single Affymetrix ATH1 Genome arrays at the VIB Microarray Facility (Leuven, Belgium). Expression data were processed with Robust Multichip Average (RMA) (background correction, normalization, and summarization) as implemented in BioConductor (Irizarry et al., 2003a, 2003b; Gentleman et al., 2004). An alternative cdf (“tinesath1cdf”) was used, in which each probe is uniquely assigned to one transcript (Casneuf et al., 2007) (http://www.bioconductor.org/packages/release/data/experiment/html/tinesath1cdf.html). The BioConductor package Limma was used to identify differentially expressed genes (Smyth, 2004). For comparisons of interest, moderated t statistics were calculated using the eBayes function and P values were corrected for multiple testing for each contrast separately using topTable. False-discovery rate (FDR)-corrected p-value<0.05 was used as a cut-off (Benjamini and Hochberg, 1995).

[2] = 1.5 h after transfer to 25 mM mannitol
[3] = 3 h after transfer to 25 mM mannitol
[4] = 12 h after transfer to 25 mM mannitol
[5] = 24 h after transfer to 25 mM mannitol

OC[C@@H](O)[C@@H](O)[C@H](O)[C@H](O)CO [mannitol]
increase of ACC levels in stressed versus control shoots (ACC levels in shoots; 1 h after stress onset, not significant): 30%
increase of ACC levels in stressed versus control shoots (ACC levels in shoots; 10 h after stress onset, significant): more than 2 fold
number of down-regulated transcripts [1, 2]: 31
number of up-regulated transcripts [1, 2]: 27
number of down-regulated transcripts [1, 3]: 145
number of up-regulated transcripts [1, 3]: 189
number of down-regulated transcripts [1, 4]: 84
number of up-regulated transcripts [1, 4]: 351
magnitude of change (down-regulation) of cell cycle genes ([1]; 24 h after stress onset): approximately 30%
number of down-regulated transcripts [1, 5]: 622
number of up-regulated transcripts [1, 5]: 886

Source: patent US20140130208A1, “METHODS AND MEANS TO PRODUCE ABIOTIC STRESS TOLERANT PLANTS” (VIB VZW, priority 2011, published 2014)
